{"source": "patent US20250381165A1", "about": "“Method of Use for Benzofuran Compounds” (Tampa Bay Research Institute, Inc., priority 2024, published 2025)", "key": {"[1]": {"biological_target": "T1, H-2Kb on DC2.4 (Mus musculus, UniProt P01901)", "T1 construct": "DC2.4 are a C57Bl/6 lineage murine cell line and as such they express MHC class I H-2Kb and H-2Db; endogenous in cells; host or cells: DC2.4", "T1 sequence (P01901 22-369)": "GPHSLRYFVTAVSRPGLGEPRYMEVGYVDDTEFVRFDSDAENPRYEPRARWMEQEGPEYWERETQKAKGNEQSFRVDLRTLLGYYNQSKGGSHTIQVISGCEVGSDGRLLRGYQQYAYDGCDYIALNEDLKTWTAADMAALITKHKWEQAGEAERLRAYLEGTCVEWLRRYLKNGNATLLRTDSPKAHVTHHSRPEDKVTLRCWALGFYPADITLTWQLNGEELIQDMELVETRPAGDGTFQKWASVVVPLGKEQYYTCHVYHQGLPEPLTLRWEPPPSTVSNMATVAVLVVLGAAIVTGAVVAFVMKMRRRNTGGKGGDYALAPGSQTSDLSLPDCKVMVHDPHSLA", "T1 sequence (P01887 21-119 partner)": "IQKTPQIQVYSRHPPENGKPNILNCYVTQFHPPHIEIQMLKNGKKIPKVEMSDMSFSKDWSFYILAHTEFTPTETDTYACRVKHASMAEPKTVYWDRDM", "test": "FITC-labeled Trp2 peptide binding to DC2.4", "assay_type": "cell-based, murine", "conditions": "50 μg/mL BzFβ 1 h, 1 h pulse 0-1000 nM peptide", "description": "Cells were cultured as previously described and treated for various times as indicated in results and figure legends. Cells were centrifuged and washed using cold FACS buffer (DPBS with 5% FBS, 2 mM EDTA, 0.1% sodium azide). Cells were stained with N-terminal fluorophore-conjugated […] FITC labeled Trp2180-188 peptide ([…]) and N-terminal FITC labeled H-2Db peptide […] (Anaspec) cells were incubated with Fc block (bioLegend™; cat. no. 101320) for 10 min to 15 min to inhibit non-specific binding, followed by peptide for 1-4 h, before washing and analysis. After washing, the cells were subjected to flow cytometric analysis with the Attune NxT Flow Cytometer (Invitrogen™). Cells were gated based on live single-cell populations and positives were assessed using isotype controls and fluor-minus-one analysis when needed. Data were analyzed using the Attune NxT software or FlowJo versions 10.7 and 10.8.\nWhile H-2Kb is the dominant haplotype, BzFβ was investigated to determine if the compound could assist peptide binding on H-2Kb and H-2Db. […]"}, "[2]": {"tested_on": "E.G7-OVA cells (B3Z activation)", "test": "B3Z activation by E.G7-OVA cells", "assay_type": "cell-based, murine", "description": "Activation of B3Z T cell hybridoma cells was assessed following their exposure to various MHC class I H-2K^b positive cell lines presenting the SIINFEKL peptide. To stimulate β-gal production in the B3Z, the H-2Kb murine cell lines, DC2.4 and E.G7-OVA were plated at a density of 2.5 or 5×10^4 cells/well (100 μL/well in 96 well plates) and cultured overnight at 37° C. in an atmosphere containing 5% CO2 and 95% humidity. The cells were washed with DPBS and then treated for 1-24 h with the indicated concentrations of BzFβ suspended in complete media. Vehicle controls were always included. Cells being examined for the uptake and processing of soluble OVA were co-treated with BzFβ and 0.5 mg/mL grade V chicken ovalbumin for 6-24 h, and then washed and cocultured with B3Z as indicated.\nFollowing the pretreatment with BzFβ, the media was removed from adherent cells (DC2.4 or B16F10) or was removed following pelleting of nonadherent cells in the plate. The cells were then pulsed with various concentrations of SIINFEKL peptide (typically 0.5 nM was used) for the indicated lengths of time (typically 1 h). The cells were washed and then 100 μL of complete DMEM containing 5×10^4 B3Z cells was added. […] The absorbance at 560 nm (700 nm for background) was intermittently monitored using a BioTek Synergy HTX multimode microplate reader (Winooski, VT) to detect β-gal activity. […]"}, "[3]": {"biological_target": "T2, H-2Kb/SIINFEKL complex on DC2.4 (Mus musculus, UniProt P01901)", "T2 construct": "DC2.4 are a C57Bl/6 lineage murine cell line and as such they express MHC class I H-2Kb and H-2Db; endogenous in cells; host or cells: DC2.4 (murine dendritic cell line, from Dr. Kenneth Rock)", "T2 sequence (P01901 22-369)": "as the sequence (P01901 22-369) above", "T2 sequence (P01887 21-119 partner)": "as the sequence (P01887 21-119 partner) above", "test": "BFA decay experiment (SIINFEKL off-rate) on DC2.4", "assay_type": "cell-based, murine", "conditions": "24 h pre-treatment, 1 h 30 nM SIINFEKL"}, "[4]": {"tested_on": "murine splenocytes (B3Z activation)", "test": "B3Z activation by murine splenocytes (OVA or SIINFEKL)", "assay_type": "cell-based", "description": "Murine splenocytes were plated at a density of 2.5 or 5×10^4 cells/well (100 μL/well in 96 well plates) and cultured overnight in cRPMI. The cells were washed with DPBS and then treated for 1-24 h with the indicated concentrations of BzFβ or co-treated with the indicated concentrations of BzFβ and 0.5 mg/mL OVA, suspended in complete media. Cells treated with BzFβ only were pulsed with 0.5 nM SIINFEKL pulsed for 1 h. The cells were then co-cultured with equal number of B3Z cells at 37° C. for 19 h."}, "[5]": {"test": "In vivo toxicity after gavage, iv or im injection", "description": "Six- to ten-week-old male and female C57BL/6NCrl mice (cat. no. 027, Charles River Laboratories, Wilmington MA) were used for all animal studies. The mice were maintained in accord with the NIH Guide for the Care and Use of Laboratory Animals. Experimental procedures were performed in accord with research protocols approved by the Tampa Bay Research Institute's Institutional Animal Care and Use Committee. Mice were maintained in an INOVIVE individually ventilated cage system with 3 mice per cage containing 100% virgin wood pulp bedding (Harlan Teklad™, Harlan Sprague Dawley Inc., Indianapolis, IA; cat. no. 7099). Water and food (Harland Teklad™; cat. no. 8640) were available ad libitum. The mice were maintained on a cycle of 12 h of light and 12 h of dark in an environment with a temperature of 74-76° […]. and 40-60% humidity. All cages underwent 40 air changes hourly in the negative pressure mode, in accordance with manufacturer's recommendations. Both the intake and exhaust air from the system were filtered through HEPA filters to maintain a clean environment. […]\nMice were gavaged with BzFβ at doses ranging from 25 mg/kg body to 100 mg/kg body weight, injected intravenously (iv) with 50 μg BzFβ or injected intramuscularly with BzFβ at 25 to 40 mg/kg body weight. For two weeks post-treatment, water intake and weight were monitored. […]"}}, "note": "Entries after “also recorded” stand apart in the source; their conditions may differ."}
{"molecule": "O=C(O)/C=C/c1ccc2occc2c1", "note": "[BzFβ, (2E)-3-(1-benzofuran-5-yl)prop-2-enoic acid]", "values": [{"measurement": "binding of FITC labeled Trp2 peptide to H-2Kb", "setting": "[1]", "result": "enhance peptide binding on both haplotypes; also recorded: enhancement of the direct binding"}, {"measurement": "ability of E.G7-OVA cells to activate B3Z", "setting": "[2]; 0-100 μg/mL BzFβ", "result": "dose-dependently reduced"}, {"measurement": "lowest dose with significant effect", "setting": "[2]; E.G7-OVA, B3Z assay", "result": 6.25, "unit": "µg/mL"}, {"measurement": "decay rate of SIINFEKL / stability of H-2Kb/SIINFEKL complex", "setting": "[3]", "result": "did not affect the decay rate of SIINFEKL"}, {"measurement": "ability of splenocytes to activate B3Z, OVA", "setting": "[4]; co-treatment 24 h, 0.5 mg/mL OVA", "result": "enhanced their ability to activate B3Z"}, {"measurement": "ability of splenocytes to activate B3Z, SIINFEKL", "setting": "[4]; pre-treatment 24 h, then 0.5 nM SIINFEKL 1 h", "result": "also enhanced their ability to activate the B3Z"}, {"measurement": "doses with significant enhancement of B3Z activation, OVA", "setting": "[4]; splenocytes, 0.5 mg/mL OVA, p<0.0001", "result": "> 6.25", "unit": "µg/mL"}, {"measurement": "doses with significant enhancement of B3Z activation, SIINFEKL", "setting": "[4]; splenocytes, 24 h, 0.5 nM SIINFEKL 1 h, p<0.0001", "result": "> 12.5", "unit": "µg/mL"}, {"measurement": "in vivo toxicity", "setting": "[5]; at the doses tested", "result": "non-toxic"}, {"measurement": "body and organ weights", "setting": "[5]; gavage 25-100 mg/kg, iv 50 μg, im 25-40 mg/kg, two weeks", "result": "no differences were measured"}]}
